Source: US9044480B1, “Compositions and methods for treating HCV” (priority 2011, dated 2015)
Read-outs that look alike come from different tables or passages of the source.

Assays:
HCV = conditions: R155K (danoprevir) or R155K/D168V (vaniprevir) mutants detected; cited from earlier work
HCV R155K mutation = conditions: clinical trials and replicon cell assays (Bartels et al.; Lu et al.; Zhou et al.); cited from earlier work
GT 1b replicon D168V = assay: HCV subgenomic replicon system, GT 1b D168V; type: cell-based
Experimental: (§1) Phenotypic analyses of clinical samples were also performed. For replicon transient transfection assays, RNA was transcribed from linearized plasmid DNA using a TranscriptAid T7 transcription kit (Fermentas) and 15 μg RNA was electroporated into Huh7-derived cells. For EC50 determinations, various concentrations of Compound I were added to cells 1-2 hr after plating and the cells were cultured for 4 days, followed by measurement of luciferase activity with a luciferase assay system kit (Promega).

[1] = system: NS3 protease domain from GT 1a HCV-infected subjects in replicon shuttle vector; assay: Replicon transient transfection EC50, NS3 protease domain from subjects cloned into shuttle vector, GT 1a; type: cell-based; conditions: for Fold Change: GT 1a; for EC50: Hepatitis C virus, GT1A
From the text: (§2) Viral RNA was isolated from the plasma of HCV-infected patients at baseline (Day 1) and Day 4 by using an automated (Abbott m2000) or manual (QIAgen QIAamp Viral RNA Mini Kit) method. Amplicons containing the NS3-4A region were generated by RT-PCR, and PCR fragments containing the first 250 amino acids of NS3 were generated in a second round of PCR. The NS3 domain fragment was subsequently cloned into pJET (Fermentas) vector for clonal sequencing or digested with restriction enzymes and cloned into the replicon shuttle vector for phenotypic analysis. The lower limit of detection of the RT-PCR amplification method restricted the analysis to patient samples with HCV RNA levels above ˜500-1000 IU/mL.
Phenotypic analyses of clinical samples were also performed. For replicon transient transfection assays, RNA was transcribed from linearized plasmid DNA using a TranscriptAid T7 transcription kit (Fermentas) and 15 μg RNA was electroporated into Huh7-derived cells. […]

GT 1a replicon WT = assay: HCV subgenomic replicon system, GT 1a WT; type: cell-based; conditions: Hepatitis C virus, GT1A
Experimental: as §1

Aqueous solubility = type: physicochemical
GT 1a replicon D168V = assay: HCV subgenomic replicon system, GT 1a D168V; type: cell-based
Experimental: as §1

[2] = system: NS3 protease domain from GT 1b HCV-infected subjects in replicon shuttle vector; assay: Replicon transient transfection EC50, NS3 protease domain from subjects cloned into shuttle vector, GT 1b; type: cell-based; conditions: for EC50: Hepatitis C virus, GT1B
From the text: as §2, §1

GT 1b replicon WT = assay: HCV subgenomic replicon system, GT 1b WT; type: cell-based; conditions: Hepatitis C virus, GT1B
Experimental: as §1

GT 1a replicon D168A = assay: HCV subgenomic replicon system, GT 1a D168A; type: cell-based
Experimental: as §1

GT 1a replicon R155K = assay: HCV subgenomic replicon system, GT 1a R155K; type: cell-based
Experimental: as §1

GT 1a replicon R155G = assay: HCV subgenomic replicon system, GT 1a R155G; type: cell-based
Experimental: as §1

CC(C)(C)OC(=O)N[C@H]1CCCCC/C=C\[C@@H]2C[C@@]2(C(=O)NS(=O)(=O)C2CC2)NC(=O)[C@@H]2C[C@@H](OC(=O)N3Cc4cccc(F)c4C3)CN2C1=O [danoprevir]
Viral load rebound in patients receiving treatment (HCV): Viral load rebound | Resistance conferred by the R155K mutation (HCV R155K mutation): high-level resistant

CC[C@@H]1C[C@]1(NC(=O)[C@@H]1C[C@@H]2CN1C(=O)[C@H](C(C)(C)C)NC(=O)OCC(C)(C)CCCCc1cccc3c1CN(C3)C(=O)O2)C(=O)NS(=O)(=O)C1CC1 [vaniprevir]
Viral load rebound in patients receiving treatment (HCV): viral load rebound

Cc1cnc(C(=O)N[C@H]2CCCCC/C=C\[C@@H]3C[C@@]3(C(=O)NS(=O)(=O)C3CC3)NC(=O)[C@@H]3C[C@@H](Oc4nc5ccccc5c5ccccc45)CN3C2=O)cn1 [Compound I, (2R,6S,13aS,14aR,16aS,Z)—N-(cyclopropylsulfonyl)-6-(5-methylpyrazine-2-carboxamido)-5,16-dioxo-2-(phenanthridin-6-yloxy)-1,2,3,5,6,7,8,9,10,11,13a,14,14a,15,16,16a-hexadecahydrocyclopropa[e]pyrrolo[1,2-a][1,4]diazacyclopentadecine-14a-carboxamide]
Fold Change (GT 1b replicon D168V; EC50 of GT 1b D168V vs GT 1b WT): 257 | EC50 (GT 1b replicon D168V; Hepatitis C virus, GT1B): 17.5 nM | Fold Change ([1]; EC50 Day 4 vs Day 1, Subject A, 200/100 mg dose group): 0.9 | Fold Change ([1]; EC50 Day 4 vs Day 1, Subject B, 200/100 mg dose group): 0.8 | Fold Change ([1]; EC50 Day 4 vs Day 1, Subject C, 200/100 mg dose group): 1.0 | Fold Change ([1]; EC50 Day 4 vs Day 1, Subject D, 200/100 mg dose group): 1.1 | Fold Change ([1]; EC50 Day 4 vs Day 1, Subject N, 100/100 mg dose group): 1.1 | Fold Change ([1]; EC50 Day 4 vs Day 1, Subject V, 50/100 mg dose group): 1.7 | EC50 ([1]; 24 h, read-out: EC50 Day 1, Subject A, GT 1a, 200/100 mg dose group, Day 1 (baseline) sample): 1.31 nM | EC50 ([1]; 24 h, read-out: EC50 Day 1, Subject B, GT 1a, 200/100 mg dose group, Day 1 (baseline) sample): 1.36 nM | EC50 ([1]; 24 h, read-out: EC50 Day 1, Subject C, GT 1a, 200/100 mg dose group, Day 1 (baseline) sample): 3.11 nM | EC50 ([1]; 24 h, read-out: EC50 Day 1, Subject D, GT 1a, 200/100 mg dose group, Day 1 (baseline) sample): 2.42 nM | EC50 ([1]; 24 h, read-out: EC50 Day 1, Subject E, GT 1a, 200/100 mg dose group, Day 1 (baseline) sample): 0.58 nM | EC50 ([1]; 24 h, read-out: EC50 Day 1, Subject G, GT 1a, 200/100 mg dose group, Day 1 (baseline) sample): 2.68 nM | EC50 ([1]; 24 h, read-out: EC50 Day 1, Subject H, GT 1a, 100/100 mg dose group, Day 1 (baseline) sample): 1.55 nM | EC50 ([1]; 24 h, read-out: EC50 Day 1, Subject I, GT 1a, 100/100 mg dose group, Day 1 (baseline) sample): 1.43 nM | EC50 ([1]; 24 h, read-out: EC50 Day 1, Subject L, GT 1a, 100/100 mg dose group, Day 1 (baseline) sample): 2.8 nM | EC50 ([1]; 24 h, read-out: EC50 Day 1, Subject M, GT 1a, 100/100 mg dose group, Day 1 (baseline) sample): 0.91 nM | EC50 ([1]; 24 h, read-out: EC50 Day 1, Subject N, GT 1a, 100/100 mg dose group, Day 1 (baseline) sample): 0.58 nM | EC50 ([1]; 24 h, read-out: EC50 Day 1, Subject P, GT 1a, 50/100 mg dose group, Day 1 (baseline) sample): 0.81 nM | EC50 ([1]; 24 h, read-out: EC50 Day 1, Subject Q, GT 1a, 50/100 mg dose group, Day 1 (baseline) sample): 0.68 nM | EC50 ([1]; 24 h, read-out: EC50 Day 1, Subject R, GT 1a, 50/100 mg dose group, Day 1 (baseline) sample): 5.97 nM | EC50 ([1]; 24 h, read-out: EC50 Day 1, Subject T, GT 1a, 50/100 mg dose group, Day 1 (baseline) sample): 0.45 nM | EC50 ([1]; 24 h, read-out: EC50 Day 1, Subject U, GT 1a, 50/100 mg dose group, Day 1 (baseline) sample): 1.52 nM | EC50 ([1]; 24 h, read-out: EC50 Day 1, Subject V, GT 1a, 50/100 mg dose group, Day 1 (baseline) sample): 1.01 nM | EC50 ([1]; 24 h, read-out: EC50 Day 1, Subject W, GT 1a, 50/100 mg dose group, Day 1 (baseline) sample): 1.54 nM | EC50 ([1]; 96 h, read-out: EC50 Day 4, Subject A, GT 1a, 200/100 mg dose group, Day 4 sample): 1.14 nM | EC50 ([1]; 96 h, read-out: EC50 Day 4, Subject B, GT 1a, 200/100 mg dose group, Day 4 sample): 1.06 nM | EC50 ([1]; 96 h, read-out: EC50 Day 4, Subject C, GT 1a, 200/100 mg dose group, Day 4 sample): 3.23 nM | EC50 ([1]; 96 h, read-out: EC50 Day 4, Subject D, GT 1a, 200/100 mg dose group, Day 4 sample): 2.57 nM | EC50 ([1]; 96 h, read-out: EC50 Day 4, Subject H, GT 1a, 100/100 mg dose group, Day 4 sample): 10.2 nM | EC50 ([1]; 96 h, read-out: EC50 Day 4, Subject L, GT 1a, 100/100 mg dose group, Day 4 sample): 8.84 nM | EC50 ([1]; 96 h, read-out: EC50 Day 4, Subject N, GT 1a, 100/100 mg dose group, Day 4 sample): 0.64 nM | EC50 ([1]; 96 h, read-out: EC50 Day 4, Subject P, GT 1a, 50/100 mg dose group, Day 4 sample): 8.88 nM | EC50 ([1]; 96 h, read-out: EC50 Day 4, Subject R, GT 1a, 50/100 mg dose group, Day 4 sample): 68.7 nM | EC50 ([1]; 96 h, read-out: EC50 Day 4, Subject U, GT 1a, 50/100 mg dose group, Day 4 sample): 11.5 nM | EC50 ([1]; 96 h, read-out: EC50 Day 4, Subject V, GT 1a, 50/100 mg dose group, Day 4 sample): 1.69 nM | EC50 ([1]; 96 h, read-out: EC50 Day 4, Subject W, GT 1a, 50/100 mg dose group, Day 4 sample): 9.78 nM | Subjects with increased EC50 values at day 4 relative to baseline ([1]; subjects with Day 4 samples amplified, includes GT 1b subject J): 7 of the 13 | EC50 (GT 1a replicon WT): 1.19 nM | Aqueous solubility (Aqueous solubility): low aqueous solubility | Fold Change (GT 1a replicon D168V; EC50 of GT 1a D168V vs GT 1a WT): 115 | EC50 (GT 1a replicon D168V; Hepatitis C virus, GT1A): 136 nM | EC50 ([2]; 24 h, read-out: EC50 Day 1, Subject F, GT 1b, 200/100 mg dose group, Day 1 (baseline) sample): 0.04 nM | EC50 ([2]; 24 h, read-out: EC50 Day 1, Subject J, GT 1b, 100/100 mg dose group, Day 1 (baseline) sample): 0.04 nM | EC50 ([2]; 24 h, read-out: EC50 Day 1, Subject K, GT 1b, 100/100 mg dose group, Day 1 (baseline) sample): 0.07 nM | EC50 ([2]; 24 h, read-out: EC50 Day 1, Subject O, GT 1b, 100/100 mg dose group, Day 1 (baseline) sample): 0.05 nM | EC50 ([2]; 24 h, read-out: EC50 Day 1, Subject S, GT 1b, 50/100 mg dose group, Day 1 (baseline) sample): 0.06 nM | EC50 ([2]; 96 h, read-out: EC50 Day 4, Subject J, GT 1b, 100/100 mg dose group, Day 4 sample): 15.5 nM | EC50 shift at day 4 relative to baseline ([2]; single GT 1b subject (J), 100/100 mg dose group): 368 fold | EC50 (GT 1b replicon WT): 0.07 nM | Fold Change (GT 1a replicon D168A; EC50 of GT 1a D168A vs GT 1a WT): 59 | EC50 (GT 1a replicon D168A; Hepatitis C virus, GT1A): 70.4 nM | Fold Change (GT 1a replicon R155K; EC50 of GT 1a R155K vs GT 1a WT): 43 | EC50 (GT 1a replicon R155K; Hepatitis C virus, GT1A): 51.5 nM | Fold Change (GT 1a replicon R155G; EC50 of GT 1a R155G vs GT 1a WT): 16 | EC50 (GT 1a replicon R155G; Hepatitis C virus, GT1A): 19.2 nM

COc1ccc2c(O[C@@H]3C[C@H]4C(=O)N[C@]5(C(=O)O)C[C@H]5/C=C\CCCCC[C@H](NC(=O)OC5CCCC5)C(=O)N4C3)cc(-c3csc(NC(C)C)n3)nc2c1 [BILN 2061]
Resistance conferred by the R155K mutation (HCV R155K mutation): high-level resistant
